This is an account of results in ChEMBL document CHEMBL4052668, “Synthesis and evaluation of symmetric acyclic nucleoside bisphosphonates as inhibitors of the Plasmodium falciparum, Plasmodium vivax and human 6-oxopurine phosphoribosyltransferases and the antimalarial activity of their prodrugs” (Bioorg Med Chem, 2017).

The CC50 is the concentration at which the toxic effect on the cells reaches its halfway point. A low value points to harm at low concentration. A word on the pIC50: it is the IC50 on a negative log10 scale, so that one unit is a factor of ten. One may read the pKi as −log10 of the Ki, conventionally taken in molar units.

The nature of data set [1]: Cytotoxicity against human A549 cells after 4 days by coulter counting method. Type of data set: cell-based.
A short description of data set [2]: Stability of the compound in pH 7 solution. The class given is physicochemical. As to conditions: buffer.
Data set [3] has as its system Plasmodium falciparum. The data set is described as follows: Antimalarial activity against Plasmodium falciparum D6 trophozoites assessed as reduction in [3H]-hypoxanthine incorporation preincubated for 96 hrs followed by [3H]-hypoxanthine addition at 48 hrs post start of experiment. The class given is functional.
Data set [4] deals with Plasmodium falciparum. The data set is described as follows: Antimalarial activity against chloroquine/pyrimethamine-resistant Plasmodium falciparum W2 trophozoites assessed as reduction in [3H]-hypoxanthine incorporation preincubated for 96 hrs followed by [3H]-hypoxanthine addition at 48 hrs post start of experiment. Type of data set: functional.
Data set [5] has as its system Plasmodium vivax. The data set is described as follows: Inhibition of N-terminal hexa-histidine-tagged Plasmodium vivax HGPRT at 42 uM using PRib-PP as substrate in presence of guanine by spectrophotometric method.
The target in data set [6] is T1, Hypoxanthine-guanine phosphoribosyltransferase (Homo sapiens) (UniProt P00492).
T1 sequence (whole entry): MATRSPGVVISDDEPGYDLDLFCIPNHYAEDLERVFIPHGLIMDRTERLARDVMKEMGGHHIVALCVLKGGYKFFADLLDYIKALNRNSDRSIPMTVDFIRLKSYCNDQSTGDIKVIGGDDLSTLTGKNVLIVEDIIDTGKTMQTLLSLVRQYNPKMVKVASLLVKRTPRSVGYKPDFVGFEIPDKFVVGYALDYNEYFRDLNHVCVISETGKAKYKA
The data set is described as follows: Inhibition of N-terminal hexa-histidine-tagged human HGPRT at 42 uM using PRib-PP as substrate in presence of guanine by spectrophotometric analysis.

Data set [7] relates to Plasmodium falciparum. The data set is described as follows: Inhibition of Plasmodium falciparum HGXPRT at 42 uM using PRib-PP as substrate in presence of guanine by spectrophotometric method.
Data set [8] can be described thus: Inhibition of Plasmodium falciparum HGXPRT using PRib-PP as substrate in presence of guanine by Hanes plot analysis.
The target of data set [9] is T2, Hypoxanthine-guanine phosphoribosyltransferase (Homo sapiens, UniProt P00492).
T2 sequence (P00492 whole entry): T1 sequence (whole entry)
Nature of the data set: Inhibition of N-terminal hexa-histidine-tagged human HGPRT using PRib-PP as substrate in presence of guanine by Hanes plot analysis.

Data set [10] in a line: Inhibition of N-terminal hexa-histidine-tagged Plasmodium vivax HGPRT using PRib-PP as substrate in presence of guanine by Hanes plot analysis.
For data set [11], the system named is Plasmodium falciparum. The data set is described as follows: Inhibition of Plasmodium falciparum HGXPRT at 31 uM using PRib-PP as substrate in presence of guanine by spectrophotometric method.
For data set [12], the system named is Plasmodium vivax. Nature of the data set: Inhibition of N-terminal hexa-histidine-tagged Plasmodium vivax HGPRT at 31 uM using PRib-PP as substrate in presence of guanine by spectrophotometric method.
Data set [13] relates to Plasmodium vivax. The data set is described as follows: Inhibition of N-terminal hexa-histidine-tagged Plasmodium vivax HGPRT at 29 uM using PRib-PP as substrate in presence of guanine by spectrophotometric method.
In data set [14] the test system is Plasmodium falciparum. Nature of the data set: Inhibition of Plasmodium falciparum HGXPRT at 29 uM using PRib-PP as substrate in presence of guanine by spectrophotometric method.
The test system of data set [15] is Plasmodium falciparum. The data set is described as follows: Inhibition of Plasmodium falciparum HGXPRT at 32 uM using PRib-PP as substrate in presence of guanine by spectrophotometric method.
Data set [16] concerns Plasmodium falciparum. Nature of the data set: Inhibition of Plasmodium falciparum HGXPRT at 46 uM using PRib-PP as substrate in presence of guanine by spectrophotometric method.
Data set [17] concerns Plasmodium vivax. The data set is described as follows: Inhibition of N-terminal hexa-histidine-tagged Plasmodium vivax HGPRT at 35 uM using PRib-PP as substrate in presence of guanine by spectrophotometric method.
For data set [18], the target named is T1, Hypoxanthine-guanine phosphoribosyltransferase (Homo sapiens). Nature of the data set: Inhibition of N-terminal hexa-histidine-tagged human HGPRT at 35 uM using PRib-PP as substrate in presence of guanine by spectrophotometric analysis.
For data set [19], the system named is Plasmodium falciparum. Nature of the data set: Inhibition of Plasmodium falciparum HGXPRT at 35 uM using PRib-PP as substrate in presence of guanine by spectrophotometric method.

Each structure is given as a SMILES string. pIC50, pKi: −log10 of the molar value. The source made the active and inactive calls. The rule behind the calls is not given here. Where only a bound is given, the exact number is not on record here.

In turn, `CCOC(=O)[C@H](Cc1ccccc1)NP(=O)(CCOCC(COCCP(=O)(N[C@@H](Cc1ccccc1)C(=O)OCC)N[C@@H](Cc1ccccc1)C(=O)OCC)n1c(Br)nc2c(=O)[nH]cnc21)N[C@@H](Cc1ccccc1)C(=O)OCC` registered a CC50 at 96 h in data set [1] of 278 µM.

For the compound `CCOC(=O)[C@H](Cc1ccccc1)NP(=O)(CCOCC(COCCP(=O)(N[C@@H](Cc1ccccc1)C(=O)OCC)N[C@@H](Cc1ccccc1)C(=O)OCC)Cn1cnc2c(=O)[nH]c(N)nc21)N[C@@H](Cc1ccccc1)C(=O)OCC`, the Stability entry in data set [2] is “Stable”. Further, the pIC50 in the data set with Plasmodium falciparum [3] is 5.29; in the data set with Plasmodium falciparum [4], 5.16. The CC50 at 96 h in data set [1] is > 300 µM.

As for `O=c1[nH]cnc2c1ccn2C(COCCP(=O)(O)O)COCCP(=O)(O)O`, the inhibition result (with Plasmodium vivax [5]; in data set [6]; with Plasmodium falciparum [7]) was “inactive” each time.

Regarding `Nc1nc2c(nc(Br)n2C(COCCP(=O)(O)O)COCCP(=O)(O)O)c(=O)[nH]1`, the negative logarithm of the Ki (pKi) is 5.40 in data set [8], 4.72 in [9] and 3.82 in data set [10].

As for `Nc1nc2c(ccn2C(COCCP(=O)(O)O)COCCP(=O)(O)O)c(=O)[nH]1`, the pKi was 5.22 in [8], 5.30 in data set [9] and 4.31 in data set [10].

For `Nc1nc2c(ccn2CC(COCCP(=O)(O)O)COCCP(=O)(O)O)c(=O)[nH]1`, the pKi was 6.00 in data set [9] and 5.82 in [10].

The compound `CCOC(=O)[C@H](Cc1ccccc1)NP(=O)(CCOCC(COCCP(=O)(N[C@@H](Cc1ccccc1)C(=O)OCC)N[C@@H](Cc1ccccc1)C(=O)OCC)Cn1c(Br)nc2c(=O)[nH]cnc21)N[C@@H](Cc1ccccc1)C(=O)OCC` returned a CC50 at 96 h in data set [1] of 43 µM.

With `CCOC(=O)[C@H](Cc1ccccc1)NP(=O)(CCOCC(COCCP(=O)(N[C@@H](Cc1ccccc1)C(=O)OCC)N[C@@H](Cc1ccccc1)C(=O)OCC)Cn1c(Br)nc2c(=O)[nH]c(N)nc21)N[C@@H](Cc1ccccc1)C(=O)OCC`, the pIC50 in the data set on Plasmodium falciparum [3] is 4.66; with Plasmodium falciparum [4], 4.67. In addition, the half-maximal cytotoxic concentration (CC50) at 96 h in [1] came out at 94 µM.

Consider `CCOC(=O)[C@H](Cc1ccccc1)NP(=O)(CCOCC(COCCP(=O)(N[C@@H](Cc1ccccc1)C(=O)OCC)N[C@@H](Cc1ccccc1)C(=O)OCC)n1c(Br)nc2c(=O)[nH]c(N)nc21)N[C@@H](Cc1ccccc1)C(=O)OCC`, for which the results for the pIC50 in the data set on Plasmodium falciparum [3] and with Plasmodium falciparum [4] were 5.36 and 5.15, respectively.

Turning to `CCOC(=O)[C@H](Cc1ccccc1)NP(=O)(CCOCC(COCCP(=O)(N[C@@H](Cc1ccccc1)C(=O)OCC)N[C@@H](Cc1ccccc1)C(=O)OCC)Cn1ccc2c(=O)[nH]c(N)nc21)N[C@@H](Cc1ccccc1)C(=O)OCC`, the Stability result in data set [2] is reported as “Stable”. Also, the negative-log IC50 (pIC50) with Plasmodium falciparum [3] is 6.10; in the data set on Plasmodium falciparum [4] it was 5.68. Besides, half-maximal cytotoxicity in data set [1] (CC50 at 96 h) was put at 95 µM.

With `O=c1[nH]cnc2c1ccn2CC(COCCP(=O)(O)O)COCCP(=O)(O)O`, the inhibition result with Plasmodium falciparum [11] and with Plasmodium vivax [12] was “inactive” each time. Besides, in [9], the negative-log Ki (pKi) is 4.77.

As for `Nc1nc2c(ncn2C(COCCP(=O)(O)O)COCCP(=O)(O)O)c(=O)[nH]1`, the negative logarithm of the Ki (pKi) in [8] was 6.70; in [9], 6.52; in data set [10], 4.68.

For `O=c1[nH]cnc2c1nc(Br)n2CC(COCCP(=O)(O)O)COCCP(=O)(O)O`, in [9], the pKi was 5.01. Besides, the inhibition result in the data set on Plasmodium vivax [13] and with Plasmodium falciparum [14] was “inactive” each time.

In the case of `Nc1nc2c(nc(Br)n2CC(COCCP(=O)(O)O)COCCP(=O)(O)O)c(=O)[nH]1`, the inhibition entry with Plasmodium falciparum [15] is “inactive”. Further, the pKi is 6.60 in data set [9] and 5.80 in [10].

Turning to `O=c1[nH]cnc2c1ncn2CC(COCCP(=O)(O)O)COCCP(=O)(O)O`, the values for the negative-log Ki (pKi) in data set [9] and in data set [10] were 5.82 and 5.22, respectively. Further, in the data set with Plasmodium falciparum [16], the inhibition result is “inactive”.

For `CCOC(=O)[C@H](Cc1ccccc1)NP(=O)(CCOCC(COCCP(=O)(N[C@@H](Cc1ccccc1)C(=O)OCC)N[C@@H](Cc1ccccc1)C(=O)OCC)n1cnc2c(=O)[nH]c(N)nc21)N[C@@H](Cc1ccccc1)C(=O)OCC`, the Stability result in data set [2] is reported as “Stable”. For the same compound, the results for the negative logarithm of the IC50 (pIC50) in the data set on Plasmodium falciparum [3] and in the data set with Plasmodium falciparum [4] were 5.00 and 5.03, respectively. In addition, the CC50 at 96 h in data set [1] is > 300 µM.

Consider `CCOC(=O)[C@H](Cc1ccccc1)NP(=O)(CCOCC(COCCP(=O)(N[C@@H](Cc1ccccc1)C(=O)OCC)N[C@@H](Cc1ccccc1)C(=O)OCC)Cn1cnc2c(=O)[nH]cnc21)N[C@@H](Cc1ccccc1)C(=O)OCC`, for which the Stability entry in data set [2] is on record as “Stable”. Also, the negative logarithm of the IC50 (pIC50) was 5.77 in the data set with Plasmodium falciparum [3] and 5.34 in the data set on Plasmodium falciparum [4]. In data set [1], this compound returned a CC50 at 96 h of 66 µM.

`CCOC(=O)[C@H](Cc1ccccc1)NP(=O)(CCOCC(COCCP(=O)(N[C@@H](Cc1ccccc1)C(=O)OCC)N[C@@H](Cc1ccccc1)C(=O)OCC)n1ccc2c(=O)[nH]cnc21)N[C@@H](Cc1ccccc1)C(=O)OCC`: the Stability result in data set [2] was “Stable”. Besides, in [1], the CC50 at 96 h worked out at 130 µM.

Take `O=c1[nH]cnc2c1nc(Br)n2C(COCCP(=O)(O)O)COCCP(=O)(O)O`: the inhibition entry (in the data set with Plasmodium vivax [17]; in data set [18]; with Plasmodium falciparum [19]) was “inactive” in each case.

In the case of `Nc1nc2c(nc(Br)n2CC(COCP(=O)(O)O)COCP(=O)(O)O)c(=O)[nH]1`, the pKi was 6.00 in data set [8], 5.40 in data set [9] and 4.05 in data set [10].

Regarding `Nc1nc2c(ncn2CC(COCCP(=O)(O)O)COCCP(=O)(O)O)c(=O)[nH]1`, the negative logarithm of the Ki (pKi) is 7.00 in [9] and 6.80 in [10].

Regarding `CCOC(=O)[C@H](Cc1ccccc1)NP(=O)(CCOCC(COCCP(=O)(N[C@@H](Cc1ccccc1)C(=O)OCC)N[C@@H](Cc1ccccc1)C(=O)OCC)Cn1ccc2c(=O)[nH]cnc21)N[C@@H](Cc1ccccc1)C(=O)OCC`, the Stability result in [2] is “Stable”. In addition, the CC50 at 96 h in data set [1] amounted to 23 µM.

For `CCOC(=O)[C@H](Cc1ccccc1)NP(=O)(CCOCC(COCCP(=O)(N[C@@H](Cc1ccccc1)C(=O)OCC)N[C@@H](Cc1ccccc1)C(=O)OCC)n1cnc2c(=O)[nH]cnc21)N[C@@H](Cc1ccccc1)C(=O)OCC`, the Stability result in data set [2] is “Stable”. Also, the pIC50 in the data set on Plasmodium falciparum [3] is 5.82; with Plasmodium falciparum [4], 5.77. Moreover, the half-maximal cytotoxic concentration (CC50) at 96 h in data set [1] is > 300 µM.

As to `O=c1[nH]cnc2c1ncn2C(COCCP(=O)(O)O)COCCP(=O)(O)O`, the pKi was 6.15 in [8], 5.52 in [9] and 4.68 in [10].

As for `CCOC(=O)[C@H](Cc1ccccc1)NP(=O)(CCOCC(COCCP(=O)(N[C@@H](Cc1ccccc1)C(=O)OCC)N[C@@H](Cc1ccccc1)C(=O)OCC)n1ccc2c(=O)[nH]c(N)nc21)N[C@@H](Cc1ccccc1)C(=O)OCC`, the Stability entry in data set [2] is “Stable”. Moreover, the pIC50 in the data set on Plasmodium falciparum [3] is 6.10; with Plasmodium falciparum [4], 5.96. Besides, the CC50 at 96 h in data set [1] was > 300 µM.
